According to article PMC4774911, “Biochemical Screening of Five Protein Kinases from Plasmodium falciparum against 14,000 Cell-Active Compounds” (PLoS ONE, 2016):
Read-outs that look alike come from different tables or passages of the source.

Tests used:
[1] = molecular target: T1, Plasmodium falciparum calcium-dependent protein kinase 1 (CDPK1) (Plasmodium falciparum, UniProt P62344); experiment: CDPK1 Kinase-Glo ATP-consumption screen and dose-response; type: biochemical; settings: hits below 1 uM; read-out: CDPK1 IC50
T1 construct: 6-Histidine (N); made in house
Outline: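 Single-point testing used 1 μM final compound, then dose-response, against CDPK4 and CDPK1 with Syntide-2 (40 μM) as substrate. After 90 min, reactions were halted by 5 mM EGTA, and kinase activity was inferred from depleted ATP via Kinase-Glo luminescence.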

[2] = test system: 3D7 PFLDH; design: method as in F.J. Gamo et al., Nature 2010; concentration or dose not given beside the values; settings: downloaded from ChEMBL, ref F.J. Gamo et al., Nature 2010; cited from earlier work
[3] = test system: HepG2 cells; settings: HepG2; downloaded from ChEMBL; ref F.J. Gamo et al., Nature 2010; cited from earlier work
[4] = molecular target: T2, Plasmodium falciparum protein kinase 6 (PK6) (Plasmodium falciparum, UniProt Q8IDW1); experiment: biochemical
T2 construct: 6-Histidine (N); made in house
T2 sequence (Q8IDW1 1-305): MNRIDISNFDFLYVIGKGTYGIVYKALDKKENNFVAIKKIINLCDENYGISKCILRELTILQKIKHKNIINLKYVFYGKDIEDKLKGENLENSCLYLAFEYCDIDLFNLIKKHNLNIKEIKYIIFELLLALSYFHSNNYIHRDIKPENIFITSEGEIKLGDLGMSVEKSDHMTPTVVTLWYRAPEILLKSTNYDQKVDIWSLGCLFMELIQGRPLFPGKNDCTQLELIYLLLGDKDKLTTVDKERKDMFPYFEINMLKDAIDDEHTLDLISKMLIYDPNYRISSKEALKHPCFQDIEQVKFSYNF

[5] = test system: DD2; design: method as in F.J. Gamo et al., Nature 2010; settings: downloaded from ChEMBL, ref F.J. Gamo et al., Nature 2010; cited from earlier work
[6] = test system: P. falciparum 3D7 cells; settings: 3D7; downloaded from ChEMBL; ref F.J. Gamo et al., Nature 2010; cited from earlier work
[7] = hits below 1 uM, read-out: PK6 IC50

T1 sequence (P62344 whole entry): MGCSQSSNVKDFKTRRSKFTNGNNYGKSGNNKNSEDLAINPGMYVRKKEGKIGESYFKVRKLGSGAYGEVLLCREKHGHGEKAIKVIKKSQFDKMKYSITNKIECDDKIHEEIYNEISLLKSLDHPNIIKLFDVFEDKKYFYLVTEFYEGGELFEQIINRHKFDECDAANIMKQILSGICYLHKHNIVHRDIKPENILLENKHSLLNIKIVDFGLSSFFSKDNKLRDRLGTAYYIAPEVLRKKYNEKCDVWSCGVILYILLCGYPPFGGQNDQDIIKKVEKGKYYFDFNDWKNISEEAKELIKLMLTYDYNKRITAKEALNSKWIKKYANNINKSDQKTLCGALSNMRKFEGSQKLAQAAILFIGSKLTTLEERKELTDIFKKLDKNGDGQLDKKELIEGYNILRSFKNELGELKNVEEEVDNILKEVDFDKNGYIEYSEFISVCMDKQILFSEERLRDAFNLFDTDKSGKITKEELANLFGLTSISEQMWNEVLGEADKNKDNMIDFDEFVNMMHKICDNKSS

Row | IC50 [1] [nM] | IC50 [4, 7] [nM] | Compound | PCT_INHIB_3D7_PFLDH [2] [%] | PCT_INHIB_HEPG2 [3] [%] | PCT_INHB_DD2 [5] [%] | PCT_IHB_3D7 [6] [%] | pXC50_3D7 [6] | IC50 [4] [nM]
1 | 144 | 42 | CNC(=O)c1ccccc1Nc1nc(Nc2ccc(N3CCOCC3)cc2)ncc1Cl.Cl [TCMDC-134144] | 0 | 75 | 97 | 97 | 6.138 | 
2 |  | 138 | CC(=O)c1ccc(NC(=O)Nc2ccc(N(C)c3ccnc(Nc4cccc(CS(C)(=O)=O)c4)n3)cc2)cc1 [TCMDC-138736] | 0 | 86 | 98 | 100 | 6.9122 | 
3 | 145 | 385 | CS(=O)(=O)Cc1ccc(Nc2nccc(N3CCCc4cc(NC(=O)Nc5cccc(C(F)(F)F)c5)ccc43)n2)cc1 [TCMDC-134309] | 0 | 46 | 99 | 100 | 6.829 | 
4 | 559 | 86 | COc1ccc(Nc2ncc(Cl)c(Nc3cccnc3C(N)=O)n2)cc1N1CCN(C)CC1.Cl [TCMDC-134163] | 6 | 77 | 97 | 95 | 6.6478 | 
5 | 967 | 270 | COc1ccc(Nc2ncc(OC)c(Nc3ccccc3C(N)=O)n2)cc1N1CCN(C)CC1.O=CO [TCMDC-134149] | 0 | 63 | 96 | 100 | 6.131 | 
6 |  | 402 | CN(c1ccc(NC(=O)Nc2cccc(Cl)c2)cc1)c1ccnc(N)n1.Cl [TCMDC-138782] | 0 | 75 | 40 | 100 | 6.202 | 
7 |  | 269 | CCNC(=O)Nc1ccc(N(C)c2ccnc(Nc3ccc(CS(C)(=O)=O)cc3)n2)cc1.Cl [TCMDC-138759] | 2 | 0 | 99 | 100 | 7.051 | 
8 |  | 844 | CN(c1ccc2c(c1)nc(NCc1ccc(F)cc1)n2C)c1ccnc(Nc2ccc(CS(C)(=O)=O)cc2)n1.Cl [TCMDC-138747] | 7 | 48 | 79 | 97 | 6.082 | 

Second part, the molecule before the results:

Row | Compound | IC50 [1] [nM] | IC50 [4, 7] [nM] | PCT_INHIB_3D7_PFLDH [2] [%] | PCT_INHIB_HEPG2 [3] [%] | PCT_INHB_DD2 [5] [%] | PCT_IHB_3D7 [6] [%] | pXC50_3D7 [6] | IC50 [4] [nM]
9 | COc1ccc(Nc2ncc(C#N)c(Nc3ccccc3C(N)=O)n2)cc1N1CCN(C)CC1.Cl [TCMDC-134117] | 89 | 61 | 0 | 56 | 97 | 93 | 6.867 | 
10 | O=C(O)C(F)(F)F.O=c1[nH]ccc2nc(N[C@@H]3CCCNC3)nc(Nc3ccc(S(=O)(=O)N4CCOCC4)cc3)c12 [TCMDC-135038] | 146 | 115 | 0 | 13 | 99 | 96 | 6.13 | 
11 | CN(c1ccc(NC(=O)Nc2cc(C(C)(C)C)on2)cc1)c1ccnc(NCCN2CCOCC2)n1.O=C(O)C(F)(F)F [TCMDC-141706] |  | 375 | 0 | 51 | 18 | 95 | 5.949 | 
12 | CN(c1ccc(NC(=O)Nc2cc(C(F)(F)F)ccc2F)cc1)c1ccnc(NCCN2CCOCC2)n1.O=C(O)C(F)(F)F [TCMDC-141590] |  | 520 | 0 | 67 | 73 | 97 | 6.29 | 
13 | CCN(CC)CCNc1nccc(N(C)c2ccc(NC(=O)Nc3cc(C(F)(F)F)ccc3F)cc2)n1.O=C(O)C(F)(F)F [TCMDC-141632] |  |  | 1 | 74 | 25 | 97 | 6.26 | 917
